Experiment [1] deals with T1, ADP-sugar pyrophosphatase (Homo sapiens, UniProt Q9UKK9). Details: species or system HEK293.
Experiment [2] addresses T1, ADP-sugar pyrophosphatase. Particulars: filed as antagonist.

Active and inactive are the calls of the source. The calls are words filed in the database; no cut-off is given here. A value given as a limit tells only on which side of the number the result lay.

On to `CC#CC(=O)N[C@H]1CCCN(c2c(F)cc(C(N)=O)c3[nH]c(C)c(C)c23)C1` [BRANEBRUTINIB], for which the 50% effective concentration (EC50) in experiment [1] is > 10 µM.
For the molecule `Cn1c(=O)c2c(nc(N3CCN(CCCCN)CC3)n2Cc2nnc(-c3ccc(Cl)c(Cl)c3)o2)n(C)c1=O`, in experiment [2], the outcome was Active.
In the case of `C=CC(=O)N1CCC[C@@H](n2nc(-c3ccc(Oc4ccccc4)cc3)c3c(N)ncnc32)C1` [IBRUTINIB], the response in experiment [1] was half-maximal at 1.23 µM (EC50). This lies in the single-digit micromolar range.
Take `CC#CC(=O)N1CCC[C@H]1c1nc(-c2ccc(C(=O)Nc3ccccn3)cc2)c2c(N)nccn12` [ACALABRUTINIB]: the half-maximal effective concentration (EC50) in experiment [1] is > 10 µM.

Broadly, the EC50 is the concentration giving half of the maximal effect.

For the origin of these results see ChEMBL document CHEMBL5506016 (J Med Chem, 2024).
